Patent US7884071B2, “Administration form for pharmaceutically active peptides with sustained release and method for the production thereof” (Zentaris GmbH, priority 2002, dated 2011)
Counter-ions that a name gives are not always drawn. Where a SMILES comes first, the peptide text is derived from it. [ ]: non-standard residue; d: D form. dPhe(4-Cl) = N[C@H](Cc1ccc(Cl)cc1)C(=O)O; d2Nal = N[C@H](Cc1ccc2ccccc2c1)C(=O)O; d(hCit) = NC(=O)NCCCC[C@@H](N)C(=O)O; NMeY = CN[C@@H](Cc1ccc(O)cc1)C(=O)O; d3Pal = N[C@H](Cc1cccnc1)C(=O)O; Nle = CCCC[C@H](N)C(=O)O

Assay: Fig. 6: Physicochemical data on D-63 153
Source text: Table printed on a drawing sheet, Fig. 6
Title: Fig. 6: Physicochemical data on D-63 153
First reader's note: Unruled property list for a single peptide; the value of 'Structural formula:' is a chemical drawing and is left empty.

## CCCC[C@H](NC(=O)[C@@H](CCCCNC(N)=O)NC(=O)[C@H](Cc1ccc(O)cc1)N(C)C(=O)[C@H](CO)NC(=O)[C@@H](Cc1cccnc1)NC(=O)[C@@H](Cc1ccc(Cl)cc1)NC(=O)[C@@H](Cc1ccc2ccccc2c1)NC(C)=O)C(=O)N[C@@H](CCCNC(=N)N)C(=O)N1CCC[C@H]1C(=O)N[C@H](C)C(N)=O [D-63153 (e.g. acetate salt), Ac-D-Nal(2)-D-Cpa-D-Pal(3)-Ser-N-Me-Tyr-D-Hci- Nle-Arg-Pro-D-Ala-NH2] (Ac-[d2Nal][dPhe(4-Cl)][d3Pal]S[NMeY][d(hCit)][Nle]RP[dA]-NH2)
  Solubility:: 0.75 mg/ml in water
